From patent US20210348119A1, “COMPOSITIONS AND METHODS FOR CELL CULTURE” (The United States of America as Represented By The …, priority 2018, published 2021)
Several values for one entry are separate records, joined by “and”; a condition that tells them apart may be missing. Identical values can stand only once. Like-named read-outs stand apart in the source and are kept apart here.

System: H9 cells
Experiment: qHTS for survival of dissociated H9 cells (CellTiter-Glo, 24 hours after seeding)
Type: cell-based, human
Text: FIG. 2 schematically illustrates qHTS procedure.
All the screed compounds were received pre-plated at the pre-determined concentrations. […] Curve classification is explained in Huang et al. “Chemical genomics profiling of environmental chemical modulation of human nuclear receptors” Environ. Health. Perspect.

[1] = H9 cell survival normalized to 10 μM Y-27632 (taken to be 100%)
[2] = H9 cell survival, normalized to 10 μM Y-27632
[3] = Homo sapiens, H9, 24 h, H9 cell survival, CellTiter-Glo 24 hours after seeding; read-out: AC50 (concentration at 50% efficacy)
[4] = H9 cell survival, CellTiter-Glo 24 hours after seeding; read-out: AC50 (concentration at 50% efficacy)
[5] = Homo sapiens, H9, 24 h; read-out: Efficacy (activity range between predicted activities at zero and infinite doses, Hill equation)
[6] = Homo sapiens, H9, 24 h; read-out: Max (maximum activity value from all tested concentrations)
[7] = Homo sapiens; H9 cell survival, CellTiter-Glo 24 hours after seeding; read-out: AC50 (concentration at 50% efficacy)
[8] = Homo sapiens, H9, 24 h, H9 cell survival normalized to 10 μM Y-27632 (taken to be 100%); read-out: Max (maximum activity value from all tested concentrations)
[9] = Homo sapiens, H9, 24 h, H9 cell survival, normalized to 10 μM Y-27632; read-out: Efficacy (activity range between predicted activities at zero and infinite doses, Hill equation)

Q: `N#CC[C@H](C1CCCC1)n1cc(-c2ncnc3[nH]ccc23)cn1` [Ruxolitinib, Freebase, Ruxolitinib] was tested. Which “Max (maximum activity value from all tested concentrations)” value [1] did it give?
A: 87.05%

Q: What about the “Efficacy (activity range between predicted activities at zero and infinite doses, Hill equation)” value [2] of the same compound?
A: 48

Q: And the AC50 [3]?
A: 10.4 µM

Q: For `N#CC[C@H](C1CCCC1)n1cc(-c2ncnc3[nH]ccc23)cn1` [Ruxolitinib], which AC50 [4] is on record?
A: 8.26 µM and 11.8 µM

Q: With `Cl.O=c1[nH]ccc2cc(OC3CCNCC3)ccc12` [SAR407899 (hydrochloride)] as the compound, how does the “Max (maximum activity value from all tested concentrations)” value [1] read?
A: 116.3%

Q: And the AC50 [4]?
A: 2.93 µM

Q: What about the “Efficacy (activity range between predicted activities at zero and infinite doses, Hill equation)” value [2] of the same compound?
A: 112

Q: Which Emax [5] does the source give for `C[S+]([O-])c1ccc(-c2nc(-c3ccncc3)c(-c3ccc(F)cc3)[nH]2)cc1` (stereo not drawn) [SB-203580] here?
A: 37.4%

Q: And the Emax [6]?
A: 35.6%

Q: And the AC50 [7]?
A: 15.2 µM

Q: For `CCn1c(-c2nonc2N)nc2cncc(CNC3CCNCC3)c21` [SB-747651-A], which “Max (maximum activity value from all tested concentrations)” value [1] is on record?
A: 78.33% and 111.1%

Q: What about the “Efficacy (activity range between predicted activities at zero and infinite doses, Hill equation)” value [2] of the same compound?
A: 35.5 and 68.7

Q: What does the source list for `CN(C)CCOc1cc(-c2cn[nH]c2)ccc1NC(=O)C1COc2ccccc2O1` (stereo not drawn) [SR-3677]?
A: AC50 [4]: 0.662 µM; Emax [8]: 122%; AC50 [3]: 0.585 µM; Emax [9]: 118%

Q: Which results are given for `O=S(=O)(N=Cc1c(O)ccc2ccccc12)c1cccs1` [STF-083010]?
A: Max (maximum activity value from all tested concentrations) [1]: 66.46%; AC50 [4]: 26.4 µM; Efficacy (activity range between predicted activities at zero and infinite doses, Hill equation) [2]: 82.4

Q: What does the source list for `Cc1cc2c(cc1CC(=O)c1sccc1S(=O)(=O)[N-]c1onc(C)c1Cl)OCO2.[Na+]` [Sitaxenian sodium]?
A: Max (maximum activity value from all tested concentrations) [1]: 21.69%; AC50 [4]: 26.1 µM; Efficacy (activity range between predicted activities at zero and infinite doses, Hill equation) [2]: 27.1

Q: How did the Emax [8] turn out when `CN1CCN(c2nc(C3=C(c4c[nH]c5ccccc45)C(=O)NC3=O)c3ccccc3n2)CC1` [Sotrastaurin] was run?
A: 35.9%

Q: And the AC50 [3]?
A: 16.6 µM

Q: What about the Emax [9] of the same compound?
A: 36.5%

Q: How did the “Max (maximum activity value from all tested concentrations)” value [1] turn out when `Brc1c(Br)c(Br)c2n[nH]nc2c1Br` [TBB] was run?
A: 28.55%

Q: And the AC50 [4]?
A: 32.6 µM

Q: And the “Efficacy (activity range between predicted activities at zero and infinite doses, Hill equation)” value [2]?
A: 33.7

Q: `O=C(O)Cc1cc(I)c(Oc2cc(I)c(O)c(I)c2)c(I)c1` [TETRAC] was tested. Which Emax [8] did it give?
A: 34.2%

Q: And the AC50 [3]?
A: 14.7 µM

Q: And the Emax [9]?
A: 35.8%

Q: What does the source list for `Cc1cnc(Nc2ccc(OCCN3CCCC3)cc2)nc1Nc1cccc(S(=O)(=O)NC(C)(C)C)c1` [TG-101348]?
A: Emax [8]: 55.1%; AC50 [3]: 33.2 µM; Emax [9]: 67.3%

Q: What does the source list for `O=C(NCc1ccccc1)c1csc(Nc2ccncn2)n1` [Thiazovivin]?
A: Max (maximum activity value from all tested concentrations) [1]: 88.3%; AC50 [4]: 0.414 µM; Efficacy (activity range between predicted activities at zero and infinite doses, Hill equation) [2]: 80.6

Q: `C=C(NC(=O)C(=C)NC(=O)c1csc(C2=N[C@@H]3c4csc(n4)[C@H]4NC(=O)c5csc(n5)[C@H]([C@](C)(O)[C@@H](C)O)NC(=O)[C@H]5CSC(=N5)/C(=C/C)NC(=O)[C@H]([C@@H](C)O)NC(=O)c5csc(n5)[C@]3(CC2)NC(=O)[C@H](C)NC(=O)C(=C)NC(=O)[C@H](C)NC(=O)[C@H]([C@@H](C)CC)N[C@@H]2C=Cc3c([C@H](C)O)cc(nc3[C@H]2O)C(=O)O[C@@H]4C)n1)C(N)=O` [Thiostrepton from Streptomyces azureus, Thiostrepton] was tested. Which AC50 (Homo sapiens, H9, 24 h, read-out: AC50 (concentration at 50% efficacy)) did it give?
A: 14.7 µM

Q: What about the Emax (Homo sapiens, H9, 24 h, read-out: Efficacy (activity range between predicted activities at zero and infinite doses, Hill equation)) of the same compound?
A: 30.2%

Q: What about the Emax (Homo sapiens, H9, 24 h, read-out: Max (maximum activity value from all tested concentrations)) of the same compound?
A: 28.4%

Q: How did the Emax [8] turn out when `Nc1nc2nc[nH]c2c(=S)[nH]1` [Tioguanine] was run?
A: 21.3%

Q: And the Emax [9]?
A: 0%

Q: Which Emax [5] does the source give for `CCC[C@@]1(CCc2ccccc2)CC(O)=C([C@H](CC)c2cccc(NS(=O)(=O)c3ccc(C(F)(F)F)cn3)c2)C(=O)O1` [Tipranavir] here?
A: 26.5%

Q: And the Emax [6]?
A: 21.8%

Q: What about the AC50 [7] of the same compound?
A: 26.1 µM

Q: `CCC(=O)N1CCN(c2ccc(-n3c(=O)ccc4cnc5ccc(-c6cnc7ccccc7c6)cc5c43)cc2C(F)(F)F)CC1` [Torin-1] was tested. Which “Max (maximum activity value from all tested concentrations)” value [1] did it give?
A: 27.66%

Q: What about the AC50 [4] of the same compound?
A: 10.5 µM

Q: And the “Efficacy (activity range between predicted activities at zero and infinite doses, Hill equation)” value [2]?
A: 31.2

Q: With `CN1CCN(Cc2ccc(-c3cnc4[nH]cc(-c5ccc6[nH]ccc6c5)c4c3)cc2)CC1` [URMC-099] as the compound, how does the Emax [8] read?
A: 27.1%

Q: And the AC50 [3]?
A: 5.21 µM

Q: What about the Emax [9] of the same compound?
A: 33.6%
